These results are taken from ChEMBL document CHEMBL4251601 (Eur J Med Chem, 2018).

SMILES strings stand for the structures.

The nature of series [1]: AUC (0 to 24 hrs) in Sprague-Dawley rat at 5 mg/kg, po administered as single dose by LC-MS/MS analysis. Type of series: ADME, organism-based. Also noted: time < 24 hr, dose 5 mg/kg, route oral. Particulars: in vivo.
Series [2] can be described thus: Stability in CD-1 mouse liver microsomes assessed as parent compound remaining at 10 uM measured after 60 mins in absence of NADPH-regenerating system by LC-MS/MS analysis. Type of series: ADME, microsome. Particulars: read-out: Stability.
Series [3] is described as follows: Half life in Sprague-Dawley rat at 5 mg/kg, po administered as single dose by LC-MS/MS analysis. To be noted: in vivo. Type of series: ADME, organism-based.
Series [4] is described as follows: (§1) AUC (0 to infinity) in Sprague-Dawley rat at 2 mg/kg, iv administered as single dose by LC-MS/MS analysis. Format: ADME, organism-based. Further details: dose 2 mg/kg, route intravenous, time infinity. Particulars: Sprague-Dawley, in vivo.
A short description of series [5]: Stability in CD-1 mouse liver microsomes assessed as parent compound remaining at 10 uM preincubated for 5 mins followed by NADP addition measured after 60 mins by LC-MS/MS analysis. Format: ADME, microsome. Particulars: read-out: Stability. On the technique in general: Microsomes from liver hold many membrane-bound enzymes, among them those of drug oxidation.
Series [6] can be described thus: AUC (0 to 24 hrs) in Sprague-Dawley rat at 2 mg/kg, iv administered as single dose by LC-MS/MS analysis. Format: ADME, organism-based. Further details: dose 2 mg/kg, time < 24 hr, route intravenous. Particulars: in vivo.
In series [7] the target is CDK6/cyclin D3 (Homo sapiens, UniProt Q00534). Description: Inhibition of CDK6/Cyclin-D3 (unknown origin) using histoneH1 as substrate after 90 mins by ADP-Glo assay. Format: protein-complex assay. (ADP-Glo turns the ADP formed in a reaction into a luminescent signal.)
Chain of CDK6/cyclin D3 (P30281 whole entry): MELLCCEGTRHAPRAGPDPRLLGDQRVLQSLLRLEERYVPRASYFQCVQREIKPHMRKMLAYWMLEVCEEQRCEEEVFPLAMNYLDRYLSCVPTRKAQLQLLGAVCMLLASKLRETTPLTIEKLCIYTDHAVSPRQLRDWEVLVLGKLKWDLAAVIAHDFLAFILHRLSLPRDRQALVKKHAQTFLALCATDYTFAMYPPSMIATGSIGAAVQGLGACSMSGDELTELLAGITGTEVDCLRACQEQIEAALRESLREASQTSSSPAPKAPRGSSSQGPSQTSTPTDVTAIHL
Chain of CDK6/cyclin D3 (Q00534 whole entry): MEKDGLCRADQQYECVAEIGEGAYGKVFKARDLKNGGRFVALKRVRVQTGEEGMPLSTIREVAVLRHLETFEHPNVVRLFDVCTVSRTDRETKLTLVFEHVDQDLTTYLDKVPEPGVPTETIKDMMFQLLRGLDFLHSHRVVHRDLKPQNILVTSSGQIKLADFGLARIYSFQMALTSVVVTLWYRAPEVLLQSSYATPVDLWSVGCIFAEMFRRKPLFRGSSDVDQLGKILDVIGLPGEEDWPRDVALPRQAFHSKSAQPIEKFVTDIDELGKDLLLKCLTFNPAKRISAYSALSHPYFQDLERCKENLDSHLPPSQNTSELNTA
The target in series [8] is Cyclin-dependent kinase 4/cyclin D1 (Homo sapiens, UniProt P11802). Description: Inhibition of CDK4/Cyclin-D1 (unknown origin) using histone-H1 as substrate after 90 mins by ADP-Glo assay. Format: protein-complex assay.
Chain of Cyclin-dependent kinase 4/cyclin D1 (P11802 whole entry): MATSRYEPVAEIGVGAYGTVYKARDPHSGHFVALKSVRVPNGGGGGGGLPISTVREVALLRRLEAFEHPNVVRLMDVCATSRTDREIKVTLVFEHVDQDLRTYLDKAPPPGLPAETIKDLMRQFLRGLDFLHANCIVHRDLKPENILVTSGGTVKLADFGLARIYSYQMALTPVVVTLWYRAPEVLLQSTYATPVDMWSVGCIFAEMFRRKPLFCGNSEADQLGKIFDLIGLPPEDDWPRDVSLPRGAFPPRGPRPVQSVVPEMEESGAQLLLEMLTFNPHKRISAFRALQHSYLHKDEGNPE
Chain of Cyclin-dependent kinase 4/cyclin D1 (P24385 whole entry, further chain): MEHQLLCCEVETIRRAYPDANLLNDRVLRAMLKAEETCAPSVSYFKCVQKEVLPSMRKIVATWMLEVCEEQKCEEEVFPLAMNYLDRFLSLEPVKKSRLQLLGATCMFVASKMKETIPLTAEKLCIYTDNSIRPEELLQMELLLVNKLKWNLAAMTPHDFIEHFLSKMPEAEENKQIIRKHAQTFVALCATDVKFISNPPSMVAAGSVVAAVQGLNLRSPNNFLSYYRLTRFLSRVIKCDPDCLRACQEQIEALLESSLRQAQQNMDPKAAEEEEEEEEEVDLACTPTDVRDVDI
Series [9] is described as follows: Clearance in Sprague-Dawley rat at 2 mg/kg, iv administered as single dose by LC-MS/MS analysis. Type of series: ADME, organism-based. Particulars: in vivo.
Series [10] in a line: Half life in CD-1 mouse liver microsomes at 10 uM preincubated for 5 mins followed by NADP addition by LC-MS/MS analysis. Type of series: ADME, microsome.
Series [11] is described as follows: Cmax in Sprague-Dawley rat at 5 mg/kg, po administered as single dose by LC-MS/MS analysis. Further details: dose 5 mg/kg, route oral. Type of series: ADME, organism-based. To be noted: in vivo.
Series [12] can be described thus: (§2) AUC (0 to infinity) in Sprague-Dawley rat at 5 mg/kg, po administered as single dose by LC-MS/MS analysis. Also noted: dose 5 mg/kg, route oral, time infinity. Particulars: Sprague-Dawley, in vivo. Type of series: ADME, organism-based.
Series [13] in a line: Volume of distribution at steady state in Sprague-Dawley rat at 2 mg/kg, iv administered as single dose by LC-MS/MS analysis. Format: ADME, organism-based. To be noted: in vivo, read-out: Vdss.
The nature of series [14]: Half life in Sprague-Dawley rat at 2 mg/kg, iv administered as single dose by LC-MS/MS analysis. Particulars: in vivo. Format: ADME, organism-based.
Series [15] is described as follows: (§3) Oral bioavailability in Sprague-Dawley rat at 5 mg/kg administered as single dose by LC-MS/MS analysis. Type of series: ADME, organism-based. To be noted: Sprague-Dawley, in vivo.
Series [16] is described as follows: Intrinsic clearance in CD-1 mouse liver microsomes at 10 uM preincubated for 5 mins followed by NADP addition by LC-MS/MS analysis. Type of series: ADME, microsome. Particulars: read-out: CLH.
A short description of series [17]: Unbound brain to plasma concentration ratio in mouse at 1 mg/kg, iv after 5 mins. Type of series: ADME, organism-based. Particulars: read-out: K(p,uu,brain).
Series [18] is filed under the species Homo sapiens. As to the kind of experiment: Selectivity ratio of IC50 for CDK1/Cyclin-A2 (unknown origin) to IC50 for CDK6/Cyclin-D3 (unknown origin).
Series [19] is described as follows: Unbound brain to plasma concentration ratio in CD-1 nude mouse at 100 mg/kg, po. Type of series: ADME, organism-based. To be noted: read-out: K(p,uu,brain).
Series [20] concerns the target CDK1/Cyclin A (Homo sapiens, UniProt P06493). Description: Inhibition of CDK1/Cyclin-A2 (unknown origin) using histone-H1 as substrate after 90 mins by ADP-Glo assay. Type of series: protein-complex assay.
Series [21] can be described thus: Unbound brain to plasma concentration ratio in mouse at 30 mg/kg, po. Format: ADME, organism-based. Particulars: read-out: K(p,uu,brain).
Series [22] relates to U-87 MG. As to the kind of experiment: Antiproliferative activity against human U87MG cells after 72 hrs by DAPI staining based assay. Type of series: functional, cell-based, U-87MG ATCC.
Series [23] has as its system Rattus norvegicus. Described as §1. Format: ADME, organism-based. Further details: dose 2 mg/kg, route intravenous, time infinity. Particulars: in vivo.
The test system of series [24] is Rattus norvegicus. Described as §2. Also noted: dose 5 mg/kg, route oral, time infinity. Format: ADME, organism-based. Particulars: in vivo.
The test system of series [25] is Rattus norvegicus. Described as §3. Particulars: in vivo. Type of series: ADME, organism-based.

Chain of CDK1/Cyclin A (P06493 whole entry): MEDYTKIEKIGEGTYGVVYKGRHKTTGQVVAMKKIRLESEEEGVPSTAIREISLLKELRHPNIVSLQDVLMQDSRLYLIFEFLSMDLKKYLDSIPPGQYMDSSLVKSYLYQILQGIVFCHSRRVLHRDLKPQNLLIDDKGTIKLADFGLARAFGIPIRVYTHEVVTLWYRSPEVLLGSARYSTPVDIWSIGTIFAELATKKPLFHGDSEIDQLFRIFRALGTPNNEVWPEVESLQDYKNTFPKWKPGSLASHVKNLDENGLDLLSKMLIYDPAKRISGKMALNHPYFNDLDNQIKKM
Chain of CDK1/Cyclin A (P20248 whole entry, further chain): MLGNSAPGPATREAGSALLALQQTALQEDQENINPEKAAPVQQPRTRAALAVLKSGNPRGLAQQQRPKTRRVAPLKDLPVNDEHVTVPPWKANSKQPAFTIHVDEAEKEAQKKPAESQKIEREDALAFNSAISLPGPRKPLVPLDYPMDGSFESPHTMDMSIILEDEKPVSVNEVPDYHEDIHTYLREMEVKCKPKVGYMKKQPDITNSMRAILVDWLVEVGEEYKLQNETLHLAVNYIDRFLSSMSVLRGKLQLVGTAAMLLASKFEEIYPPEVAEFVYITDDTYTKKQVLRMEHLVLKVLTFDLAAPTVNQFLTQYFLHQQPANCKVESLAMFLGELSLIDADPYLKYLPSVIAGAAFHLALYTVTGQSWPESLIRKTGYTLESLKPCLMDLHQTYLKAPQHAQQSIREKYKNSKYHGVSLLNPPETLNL

Consider `CCN1CCN(Cc2ccc(Nc3ncc(F)c(-c4cc(F)c5c(c4)C4(CCCC4)C(C)=N5)n3)nc2)CC1`, for which the exposure AUC(0-t) (as a rule, the area under the concentration-time curve up to a stated or last time point) at 24 h in series [1] is 813 ng·h/mL; in series [6] it was 670 ng·h/mL. Besides, the remaining at 1 h, 10 µM in series [2] is 81.1%; in [5] it was 1%. Besides, the half-life (usually the time needed for the level to fall by half in the phase considered) was 3.6 h in [3] and 4.6 h in series [14]. For the same compound, the area under the curve AUC(0-inf) (as a rule, total exposure, with the tail of the curve extrapolated) in [4] was 686 ng·h/mL; in series [12], 827 ng·h/mL. The results for the half-maximal inhibitory concentration (IC50) in [7] and in series [8] were 2 nM and 12 nM, respectively. Moreover, the clearance (in general, the volume of plasma or blood freed of the substance per unit of time) in series [9] is 48.9 mL/min/kg. In series [10], this compound had a half-life at 10 µM of 0.135 h. The maximum concentration (Cmax) (commonly the highest concentration seen after dosing) in series [11] was 77.1 ng/mL. Further, the Vd in [13] is 16.7 L/kg. Further, the bioavailability – broadly, the share of a dose that reaches the circulation, judged against a reference dose that is usually intravenous – in series [15] amounted to 48%. Moreover, the microsomal CLint at 10 µM in series [16] amounted to 171 µL/min/mg.

Consider `CC(=O)c1c(C)c2cnc(Nc3ccc(N4CCNCC4)cn3)nc2n(C2CCCC2)c1=O` [PALBOCICLIB], for which the Kp uu at 5 min in series [17] amounted to 0.01.

As to `CC1=Nc2ccc(-c3nc(Nc4ccc(N5CCN(C)CC5)cn4)ncc3F)cc2C12CCCC2`, the AUC(0-t) at 24 h in [1] came out at 269 ng·h/mL; in series [6], 442 ng·h/mL. Moreover, the total exposure AUC(0-inf) in series [4] worked out at 458 ng·h/mL; in series [12], 382 ng·h/mL. For the same compound, the Ratio IC50 in series [18] turned out to be 46. The values for the IC50 in series [7] and in [8] were 9 nM and 15 nM, respectively. This compound came in with a clearance in series [9] of 72.9 mL/min/kg. Further, in series [11], the Cmax is 28.9 ng/mL. Also, the Vd in series [13] worked out at 15.7 L/kg. The same compound showed a half-life in series [14] of 4.8 h. In addition, in [15], the bioavailability is 24%.

Take `CC1=Nc2c(F)cc(-c3nc(Nc4ccc(N5CCNCC5)cn4)ncc3F)cc2C12CCCC2`: the area under the curve AUC(0-t) at 24 h in [1] was determined as 671 ng·h/mL; in series [6] it was 949 ng·h/mL. In addition, the remaining at 1 h, 10 µM in series [2] amounted to 94.4%; in series [5], 24%. The AUC(0-inf) in series [4] amounted to 1000 ng·h/mL. Besides, the Ratio IC50 in series [18] amounted to 25. Also, the concentration for half-maximal inhibition (IC50) – broadly, the concentration needed to halve the response being measured – in [7] turned out to be 6 nM; in series [8] it was 8 nM. Further, the clearance in series [9] was found to be 34.7 mL/min/kg. This compound displayed a half-life at 10 µM in [10] of 0.47 h. The Cmax in series [11] was 56.6 ng/mL. Further, the Vd in series [13] is 17.2 L/kg. Moreover, the half-life in series [14] was 5.8 h. This compound also registered a bioavailability in series [15] of 28%. Besides, the microsomal CLint at 10 µM in series [16] is 49.2 µL/min/mg.

As for `CN(C)C(=O)c1cc2cnc(Nc3ccc(N4CCNCC4)cn3)nc2n1C1CCCC1` [RIBOCICLIB], the Kp uu in series [19] was 0.12.

For the compound `CCN1CCN(Cc2ccc(Nc3ncc(F)c(-c4cc(F)c5c(c4)C(C)(CC)C(C)=N5)n3)nc2)CC1` (stereo unspecified), the values for the exposure AUC(0-t) at 24 h in series [1] and in series [6] were 403 ng·h/mL and 685 ng·h/mL, respectively. For the same compound, the results for the half-life in series [3] and in series [14] were 4.7 h and 5.3 h, respectively. The total exposure AUC(0-inf) amounted to 696 ng·h/mL in series [4] and 412 ng·h/mL in [12]. Moreover, the Ratio IC50 in series [18] worked out at 37. The 50% inhibitory concentration (IC50) in series [20] turned out to be 966 nM; in series [7], 26 nM; in series [8] it was 33 nM. The compound also had a clearance in series [9] of 50.7 mL/min/kg. In series [11], this compound showed a Cmax of 58.5 ng/mL. Besides, the Vd in [13] is 25.1 L/kg. The compound also gave a bioavailability in [15] of 23%.

Take `CCN1CCN(Cc2ccc(Nc3ncc(F)c(-c4cc(F)c5nc(C)n(C(C)C)c5c4)n3)nc2)CC1` [ABEMACICLIB]: the Kp uu in [21] turned out to be 0.03. This compound came in with a concentration for half-maximal inhibition (IC50) in [22] of 48.1 nM.

`CCN1CCN(c2ccc(Nc3ncc(F)c(-c4ccc5c(c4)C4(CCCC4)C(C)=N5)n3)nc2)CC1`: the AUC(0-t) at 24 h in series [1] is 1200 ng·h/mL; in [6], 1900 ng·h/mL. The AUC – broadly, concentration integrated over time – in series [23] came to 2000 ng·h/mL; in series [24], 3651 ng·h/mL. The Ratio IC50 in series [18] was 18. For the same compound, the clearance in series [9] is 16.9 mL/min/kg. Also, in [11], the peak concentration (Cmax) came out at 99.9 ng/mL. Besides, the Vd in [13] came out at 7.1 L/kg. The same compound gave a half-life in series [14] of 6.1 h. The F in series [25] stood at 25%.

For the compound `CCC1(C)C(C)=Nc2c(F)cc(-c3nc(Nc4ccc(N5CCNCC5)cn4)ncc3F)cc21` (stereo unspecified), the area under the curve AUC(0-t) at 24 h is 145 ng·h/mL in series [1] and 256 ng·h/mL in series [6]. Also, the AUC(0-inf) in series [4] came out at 270 ng·h/mL. Also, in series [18], the Ratio IC50 turned out to be 28. Also, the concentration for half-maximal inhibition (IC50) came to 84 nM in series [20], 3 nM in [7] and 44 nM in series [8]. Also, in series [9], the clearance amounted to 125 mL/min/kg. Besides, the peak concentration (Cmax) in series [11] is 18 ng/mL. Also, the Vd in series [13] stood at 28.1 L/kg. This compound also gave a half-life in [14] of 3 h. The same compound displayed a bioavailability in series [15] of 23%.

Consider `CCN1CCN(c2ccc(Nc3ncc(F)c(-c4cc(F)c5c(c4)C4(CCCC4)C(C)=N5)n3)nc2)CC1`, for which the AUC(0-t) at 24 h in [1] was 842 ng·h/mL; in series [6] it was 2110 ng·h/mL. Besides, the half-life was 9.8 h in series [3] and 7 h in series [14]. Besides, the area under the curve AUC(0-inf) was 2230 ng·h/mL in series [4] and 1360 ng·h/mL in series [12]. Besides, the IC50 in series [7] came out at 16 nM; in series [8], 18 nM. The compound further gave a clearance in series [9] of 15 mL/min/kg. The same compound returned a Cmax in series [11] of 70.4 ng/mL. For the same compound, the Vd in series [13] came out at 5.7 L/kg. The compound further gave a bioavailability in [15] of 16%.

For the compound `CC1=Nc2c(F)cc(-c3nc(Nc4ccc(N5CCN(C)CC5)cn4)ncc3F)cc2C12CCCC2`, the AUC(0-t) at 24 h in [1] came to 386 ng·h/mL; in [6] it was 761 ng·h/mL. Besides, the half-life is 5.1 h in series [3] and 3.8 h in [14]. Besides, the AUC(0-inf) came to 796 ng·h/mL in series [4] and 420 ng·h/mL in series [12]. Besides, the Ratio IC50 in series [18] was determined as 16. In [9], the clearance is 42.3 mL/min/kg. This compound also came in with a Cmax in [11] of 37 ng/mL. In addition, in series [13], the Vd turned out to be 8.5 L/kg. This compound also registered a bioavailability in [15] of 21%.
